From US20200288711A1, “Pyrimidin-4-Carbamate or Urea Derivatives As Herbicides” (Syngenta Participations AG, priority 2017, published 2020)

What was measured:
Type in all cases: in vivo
[1] = test system: Echinochloa crus-galli (ECHCG); test: B1 pre-emergence herbicidal activity; parameters: key to Pre-emergence herbicidal activity, ECHCG: 5=total damage to plant; 0=no damage to plant; conditions: Test 1b, rate 1000 g/ha, evaluated after 13 days, score 0-5 (5=total damage, 0=no damage)
Description: (§1) Seeds of a variety of test species were sown in standard soil in pots: Triticum aestivium (TRZAW), Avena fatua (AVEFA), Alopecurus myosuroides (ALOMY), Echinochloa crus-galli (ECHCG), Lolium perenne (LOLPE), Zea mays (ZEAMX), Abutilon theophrasti (ABUTH), Amaranthus retroflexus (AMARE) and Setaria faberi (SETFA). After cultivation for one day (pre-emergence) under controlled conditions in a glasshouse (at 24/16° C., day/night; 14 hours light; 65% humidity), the plants were sprayed with an aqueous spray solution derived from the formulation of the technical active ingredient in acetone/water (50:50) solution containing 0.5% Tween 20 (polyoxyethelyene sorbitan monolaurate, CAS RN 9005-64-5). The test plants were then grown in a glasshouse under controlled conditions (at 24/16° C., day/night; 14 hours light; 65% humidity) and watered twice daily. After 13 days, the test was evaluated (5=total damage to plant; 0=no damage to plant).

[2] = test system: Alopecurus myosuroides (ALOMY); test: B1 pre-emergence herbicidal activity; parameters: key: 5=total damage to plant; 0=no damage to plant; conditions: Test 1b, rate 1000 g/ha, evaluated after 13 days, score 0-5 (5=total damage, 0=no damage)
Description: as §1

Lolium perenne (LOLPE) [3] = test: B1 pre-emergence herbicidal activity; parameters: key: 5=total damage to plant; 0=no damage to plant; conditions: Test 1b, rate 1000 g/ha, evaluated after 13 days, score 0-5 (5=total damage, 0=no damage)
Description: as §1

[4] = test system: Triticum aestivium (TRZAW); test: B1 pre-emergence herbicidal activity; parameters: key: 5=total damage to plant; 0=no damage to plant; conditions: Test 1b, rate 1000 g/ha, evaluated after 13 days, score 0-5 (5=total damage, 0=no damage)
Description: as §1

Avena fatua (AVEFA) [5] = test: B1 pre-emergence herbicidal activity; parameters: key: 5=total damage to plant; 0=no damage to plant; conditions: Test 1b, rate 1000 g/ha, evaluated after 13 days, score 0-5 (5=total damage, 0=no damage)
Description: as §1

Setaria faberi (SETFA) [6] = test: B1 pre-emergence herbicidal activity; parameters: key to Pre-emergence herbicidal activity, SETFA: 5=total damage to plant; 0=no damage to plant; conditions: Test 1b, rate 1000 g/ha, evaluated after 13 days, score 0-5 (5=total damage, 0=no damage)
Description: as §1

[7] = test system: Alopecurus myosuroides (ALOMY); test: B2 post-emergence herbicidal activity; parameters: key: 5=total damage to plant; 0=no damage to plant; conditions: Test 2b, rate 1000 g/ha, evaluated after 13 days, score 0-5 (5=total damage, 0=no damage)
Description: (§2) Seeds of a variety of test species were sown in standard soil in pots: Triticum aestivium (TRZAW), Avena fatua (AVEFA), Alopecurus myosuroides (ALOMY), Echinochloa crus-galli (ECHCG), Lolium perenne (LOLPE), Zea mays (ZEAMX), Abutilon theophrasti (ABUTH), Amaranthus retroflexus (AMARE) and Setaria faberi (SETFA). After 8 days cultivation (post-emergence) under controlled conditions in a glasshouse (at 24/16° C., day/night; 14 hours light; 65% humidity), the plants were sprayed with an aqueous spray solution derived from the formulation of the technical active ingredient in acetone/water (50:50) solution containing 0.5% Tween 20 (polyoxyethelyene sorbitan monolaurate, CAS RN 9005-64-5). The test plants were then grown in a glasshouse under controlled conditions (at 24/16° C., day/night; 14 hours light; 65% humidity) and watered twice daily. After 13 days, the test was evaluated (5=total damage to plant; 0=no damage to plant).

Lolium perenne (LOLPE) [8] = test: B2 post-emergence herbicidal activity; parameters: key: 5=total damage to plant; 0=no damage to plant; conditions: Test 2b, rate 1000 g/ha, evaluated after 13 days, score 0-5 (5=total damage, 0=no damage)
Description: as §2

Setaria faberi (SETFA) [9] = test: B2 post-emergence herbicidal activity; parameters: key: 5=total damage to plant; 0=no damage to plant; conditions: Test 2b, rate 1000 g/ha, evaluated after 13 days, score 0-5 (5=total damage, 0=no damage)
Description: as §2

[10] = test system: Triticum aestivium (TRZAW); test: B2 post-emergence herbicidal activity; parameters: key: 5=total damage to plant; 0=no damage to plant; conditions: Test 2b, rate 1000 g/ha, evaluated after 13 days, score 0-5 (5=total damage, 0=no damage)
Description: as §2

[11] = test system: Echinochloa crus-galli (ECHCG); test: B2 post-emergence herbicidal activity; parameters: key: 5=total damage to plant; 0=no damage to plant; conditions: Test 2b, rate 1000 g/ha, evaluated after 13 days, score 0-5 (5=total damage, 0=no damage)
Description: as §2

Avena fatua (AVEFA) [12] = test: B2 post-emergence herbicidal activity; parameters: key: 5=total damage to plant; 0=no damage to plant; conditions: Test 2b, rate 1000 g/ha, evaluated after 13 days, score 0-5 (5=total damage, 0=no damage)
Description: as §2

CC(C)(C)OC(=O)Nc1cnc(-c2cncc(C#N)c2)nc1C(F)(F)F [Compound E12, tert-butyl N-[2-(5-cyano-3-pyridyl)-4-(trifluoromethyl)pyrimidin-5-yl]carbamate]
Pre-emergence herbicidal activity, ECHCG [1]: 3
Pre-emergence herbicidal activity, ALOMY [2]: 0
Pre-emergence herbicidal activity, LOLPE (Lolium perenne (LOLPE) [3]): 0
Pre-emergence herbicidal activity, TRAZW [4]: 0
Pre-emergence herbicidal activity, AVEFA (Avena fatua (AVEFA) [5]): 0
Pre-emergence herbicidal activity, SETFA (Setaria faberi (SETFA) [6]): 4
Control of weed species after post-emergence application, ALOMY [7]: 0
Control of weed species after post-emergence application, LOLPE (Lolium perenne (LOLPE) [8]): 1
Control of weed species after post-emergence application, SETFA (Setaria faberi (SETFA) [9]): 5
Control of weed species after post-emergence application, TRAZW [10]: 0
Control of weed species after post-emergence application, ECHCG [11]: 2
Control of weed species after post-emergence application, AVEFA (Avena fatua (AVEFA) [12]): 2

CN(C)C(=O)Nc1cnc(-c2cncc(F)c2)nc1C(F)(F)F [Compound E13]
Pre-emergence herbicidal activity, ECHCG [1]: 3
Pre-emergence herbicidal activity, ALOMY [2]: 0
Pre-emergence herbicidal activity, LOLPE (Lolium perenne (LOLPE) [3]): 1
Pre-emergence herbicidal activity, TRAZW [4]: 0
Pre-emergence herbicidal activity, AVEFA (Avena fatua (AVEFA) [5]): 1
Pre-emergence herbicidal activity, SETFA (Setaria faberi (SETFA) [6]): 4
Control of weed species after post-emergence application, ALOMY [7]: 1
Control of weed species after post-emergence application, LOLPE (Lolium perenne (LOLPE) [8]): 3
Control of weed species after post-emergence application, SETFA (Setaria faberi (SETFA) [9]): 5
Control of weed species after post-emergence application, TRAZW [10]: 2
Control of weed species after post-emergence application, ECHCG [11]: 4
Control of weed species after post-emergence application, AVEFA (Avena fatua (AVEFA) [12]): 3

CC(C)OC(=O)Nc1cnc(-c2cncc(F)c2)nc1C(F)(F)F [Compound E14, isopropyl N-[2-(5-fluoro-3-pyridyl)-4-(trifluoromethyl)pyrimidin-5-yl]carbamate]
Pre-emergence herbicidal activity, ECHCG [1]: 3
Pre-emergence herbicidal activity, ALOMY [2]: 0
Pre-emergence herbicidal activity, LOLPE (Lolium perenne (LOLPE) [3]): 0
Pre-emergence herbicidal activity, TRAZW [4]: 0
Pre-emergence herbicidal activity, AVEFA (Avena fatua (AVEFA) [5]): 1
Pre-emergence herbicidal activity, SETFA (Setaria faberi (SETFA) [6]): 5
Control of weed species after post-emergence application, ALOMY [7]: 0
Control of weed species after post-emergence application, LOLPE (Lolium perenne (LOLPE) [8]): 3
Control of weed species after post-emergence application, SETFA (Setaria faberi (SETFA) [9]): 5
Control of weed species after post-emergence application, TRAZW [10]: 1
Control of weed species after post-emergence application, ECHCG [11]: 4
Control of weed species after post-emergence application, AVEFA (Avena fatua (AVEFA) [12]): 3

CC(C)COC(=O)Nc1cnc(-c2cncc(F)c2)nc1C(F)(F)F [Compound E15]
Pre-emergence herbicidal activity, ECHCG [1]: 5
Pre-emergence herbicidal activity, ALOMY [2]: 0
Pre-emergence herbicidal activity, LOLPE (Lolium perenne (LOLPE) [3]): 1
Pre-emergence herbicidal activity, TRAZW [4]: 0
Pre-emergence herbicidal activity, AVEFA (Avena fatua (AVEFA) [5]): 2
Pre-emergence herbicidal activity, SETFA (Setaria faberi (SETFA) [6]): 5
Control of weed species after post-emergence application, ALOMY [7]: 1
Control of weed species after post-emergence application, LOLPE (Lolium perenne (LOLPE) [8]): 3
Control of weed species after post-emergence application, SETFA (Setaria faberi (SETFA) [9]): 5
Control of weed species after post-emergence application, TRAZW [10]: 2
Control of weed species after post-emergence application, ECHCG [11]: 5
Control of weed species after post-emergence application, AVEFA (Avena fatua (AVEFA) [12]): 4

O=C1OCCN1c1cnc(-c2cncc(F)c2)nc1C(F)(F)F [Compound E17]
Pre-emergence herbicidal activity, ECHCG [1]: 3
Pre-emergence herbicidal activity, ALOMY [2]: 0
Pre-emergence herbicidal activity, LOLPE (Lolium perenne (LOLPE) [3]): 0
Pre-emergence herbicidal activity, TRAZW [4]: 0
Pre-emergence herbicidal activity, AVEFA (Avena fatua (AVEFA) [5]): 0
Pre-emergence herbicidal activity, SETFA (Setaria faberi (SETFA) [6]): 4
Control of weed species after post-emergence application, ALOMY [7]: 0
Control of weed species after post-emergence application, LOLPE (Lolium perenne (LOLPE) [8]): 1
Control of weed species after post-emergence application, SETFA (Setaria faberi (SETFA) [9]): 4
Control of weed species after post-emergence application, TRAZW [10]: 1
Control of weed species after post-emergence application, ECHCG [11]: 3
Control of weed species after post-emergence application, AVEFA (Avena fatua (AVEFA) [12]): 2

CCC(C)OC(=O)Nc1cnc(-c2cncc(F)c2)nc1C(F)(F)F (stereo not drawn) [Compound E18]
Pre-emergence herbicidal activity, ECHCG [1]: 2
Pre-emergence herbicidal activity, ALOMY [2]: 0
Pre-emergence herbicidal activity, LOLPE (Lolium perenne (LOLPE) [3]): 0
Pre-emergence herbicidal activity, TRAZW [4]: 1
Pre-emergence herbicidal activity, AVEFA (Avena fatua (AVEFA) [5]): 1
Pre-emergence herbicidal activity, SETFA (Setaria faberi (SETFA) [6]): 5
Control of weed species after post-emergence application, ALOMY [7]: 0
Control of weed species after post-emergence application, LOLPE (Lolium perenne (LOLPE) [8]): 1
Control of weed species after post-emergence application, SETFA (Setaria faberi (SETFA) [9]): 5
Control of weed species after post-emergence application, TRAZW [10]: 0
Control of weed species after post-emergence application, ECHCG [11]: 4
Control of weed species after post-emergence application, AVEFA (Avena fatua (AVEFA) [12]): 1

CCOC(=O)Nc1cnc(-c2cncc(F)c2)nc1C(F)(F)F [Compound E19]
Pre-emergence herbicidal activity, ECHCG [1]: 3
Pre-emergence herbicidal activity, ALOMY [2]: 0
Pre-emergence herbicidal activity, LOLPE (Lolium perenne (LOLPE) [3]): 1
Pre-emergence herbicidal activity, TRAZW [4]: 0
Pre-emergence herbicidal activity, AVEFA (Avena fatua (AVEFA) [5]): 0
Pre-emergence herbicidal activity, SETFA (Setaria faberi (SETFA) [6]): 4
Control of weed species after post-emergence application, ALOMY [7]: 0
Control of weed species after post-emergence application, LOLPE (Lolium perenne (LOLPE) [8]): 3
Control of weed species after post-emergence application, SETFA (Setaria faberi (SETFA) [9]): 5
Control of weed species after post-emergence application, TRAZW [10]: 1
Control of weed species after post-emergence application, ECHCG [11]: 5
Control of weed species after post-emergence application, AVEFA (Avena fatua (AVEFA) [12]): 3

CC(C)(C)OC(=O)Nc1cnc(-c2cncc(F)c2)nc1OCc1ccccc1 [Compound E20]
Pre-emergence herbicidal activity, ECHCG [1]: 0
Pre-emergence herbicidal activity, ALOMY [2]: 0
Pre-emergence herbicidal activity, LOLPE (Lolium perenne (LOLPE) [3]): 0
Pre-emergence herbicidal activity, TRAZW [4]: 0
Pre-emergence herbicidal activity, AVEFA (Avena fatua (AVEFA) [5]): 0
Pre-emergence herbicidal activity, SETFA (Setaria faberi (SETFA) [6]): 0
Control of weed species after post-emergence application, ALOMY [7]: 0
Control of weed species after post-emergence application, LOLPE (Lolium perenne (LOLPE) [8]): 0
Control of weed species after post-emergence application, SETFA (Setaria faberi (SETFA) [9]): 1
Control of weed species after post-emergence application, TRAZW [10]: 0
Control of weed species after post-emergence application, ECHCG [11]: 0
Control of weed species after post-emergence application, AVEFA (Avena fatua (AVEFA) [12]): 0

COC(=O)Nc1cnc(-c2cncc(F)c2)nc1C(F)(F)F [Compound E21]
Pre-emergence herbicidal activity, ECHCG [1]: 3
Pre-emergence herbicidal activity, ALOMY [2]: 1
Pre-emergence herbicidal activity, LOLPE (Lolium perenne (LOLPE) [3]): 0
Pre-emergence herbicidal activity, TRAZW [4]: 1
Pre-emergence herbicidal activity, AVEFA (Avena fatua (AVEFA) [5]): 0
Pre-emergence herbicidal activity, SETFA (Setaria faberi (SETFA) [6]): 4
Control of weed species after post-emergence application, ALOMY [7]: 1
Control of weed species after post-emergence application, LOLPE (Lolium perenne (LOLPE) [8]): 2
Control of weed species after post-emergence application, SETFA (Setaria faberi (SETFA) [9]): 4
Control of weed species after post-emergence application, TRAZW [10]: 1
Control of weed species after post-emergence application, ECHCG [11]: 5
Control of weed species after post-emergence application, AVEFA (Avena fatua (AVEFA) [12]): 4
